Columns and labels:
HCMV = test: Neutralization of cell-free HCMV particles / inhibition of HCMV entry in cell culture; assay type: cell-based, Human cytomegalovirus
Description: Infectious cell free HCMV preparations (corresponding to a multiplicity of infection of 1) are pre-incubated with the substance (at variable concentrations) for 2 h at 37° C. The pre-incubated mixture of HCMV and substance is added to cell cultures of choice, including at least a culture of human primary fibroblasts and a culture of human endothelial cells. Cells are incubated with the mixture for 2 h at 37° C. The mixture of HCMV and substance is then replaced with the appropriate cell culture medium and cells are further incubated for at least 16 h at 37° C. HCMV infection of the cells is detected by immunostaining of HCMV immediate early antigens (pUL122/123) with indirect immunofluorescence. The ratio of HCMV-IE antigen-positive cells per total cells is calculated as a readout for the efficiency of viral entry.

HCMV strain TB40/E = test: Inhibition of infection of endothelial cells (HECs), IE antigen immunofluorescence; assay type: cell-based, Human cytomegalovirus
Description: For testing the inhibitory effect of antivirals or fusion proteins on HCMV, the respective inhibitors were diluted in MEM and mixed with infectious supernatants, the mixtures were incubated for 2 h at 37° C. before addition to the cells. For fibroblast infection the virus-inhibitor mixture was incubated on the cells for about 24 h. If endothelial cells were included in the experiment, all cells were supplied with their respective maintenance media after 2 h, and further incubated for 22 h.
Infection efficiencies were determined by immunofluorescence staining for viral proteins. For fixation and permeabilization the cells were incubated with 80% acetone for 5 min. For HCMV infected cells the immediate early proteins pUL122/123 were detected with a mouse monoclonal (clone E13, Argene) and visualized using a Cy3 conjugated goat anti-mouse secondary antibody (Jackson Immuno Research). HSV infected cultures were stained 6 h post infection for ICP0 using a mouse monoclonal (clone 11060, Santa Cruz) and goat anti-mouse AF488 (life technologies). DAPI was used to locate nuclei. Infection rates were determined by counting the number of cell nuclei positive for the respective viral protein, as well as the total number of nuclei per image. For each condition three images were evaluated. […]

[1] = tested on: TB40-BACKL7-UL32EGFP-UL100mCherry; test: Adsorption and penetration of dual fluorescent HCMV particles on HFFs; assay type: cell-based, Human cytomegalovirus; conditions: 100 ng/ml
Description: To distinguish between adsorption and penetration of viral particles the inventors made use of dual fluorescent HCMV TB40-BACKL7-UL32EGFP-UL100mCherry (Sampaio 2013). HFFs and HECs were seeded at a density of 40,000 cells per well on gelatin-coated MIDI plates. Overnight produced cell-free infectious supernatant of the fluorescent virus was pre-incubated with PDGFR-Fcs for 2 h at 37° C. Before addition of the mixture the cells were pre-incubated with MEM for 30 min. […] After fixation with acetone, the EGFP signal of pUL32-EGFP was enhanced using mouse-anti-GFP (clone 3E6, Invitrogen) and Alexa488-anti-mouse (Life Technologies). DAPI (4′,6-diamidino-2-phenylindole) was added to mark the cell nuclei. The number of mCherry and EGFP positive particles which are enveloped was compared to the number of particles which were only green per cell. These […] particles have lost their UL100mCherry containing envelope, presumably by fusion with cellular membranes.
To further investigate, which of the initial steps of infection are blocked, the inventors performed a series of experiments that allowed discriminating between adsorption and penetration. They used the dual fluorescent virus TB40-BACKL7-UL32EGFP-UL100mCherry (Sampaio 2013) as it allows to discriminate between enveloped (EGFP-positive and mCherry positive) and non-enveloped particles (only EGFP positive). […]

[2] = tested on: HCMV wild type or UL74stop particles; test: Staining of wild type and UL74stop (gO deficient) particles with Fc-fusion protein; assay type: binding, Human cytomegalovirus; conditions: 500 ng/ml, 2 h
Description: To assess the binding of Fc-Proteins to virus particles, HFFs were seeded at a density of 40,000 cells per well on IBIDI plates 1 day prior to infection. Virus preparations were pre-incubated with Fc-fusion proteins at a final concentration of 500 ng/ml for 2 h at 37° C. The virus/Fc-protein mixtures were incubated with the cells for 1.5 h on ice. Before fixation with 80% acetone, the cells were washed once with MEM. For staining of viral particles mouse hybridoma recognizing the abundant viral protein pp150 (generously provided by W. Britt, Sanchez 2000) used. As a secondary antibody goat anti-mouse Cy3 (Jackson Immuno Research was used. Visualization of bound Fc-proteins was achieved by applying anti-human Alexa488 (Invitrogen). For better orientation, cell nuclei were stained with DAPI. For quantification of PDGFR-alpha-Fc binding to HCMV particles, the grey values of 100 particles per condition were quantified using AxioVision Software (Zeiss).
To test whether pUL74 is an interaction partner of PDGFR-alpha-Fc, the inventors tested whether gO deficient particles can be stained with the soluble molecule similarly to wild type particles (shown in FIG. 8). HCMV wild type or UL74stop particles were incubated with 500 ng/ml PDGFR-alpha-Fc or PDGFRβ-Fc for 2 h before attachment to the cells ice. […]

## PDGFR-alpha-Fc: recombinant Fc-fusion protein of the PDGFR-alpha extracellular domain, obtained from R&D (6765-PR-050)
HCMV
  EC50 of binding to and neutralizing cell-free HCMV particles: 0.01 to 0.05 µg/mL
  attachment to and fusion with cells of treated particles: reduced attachment to and reduced fusion with cells
  effect when applied post-attachment: effective
HCMV strain TB40/E
  extent of reduction of infection of HECs: incomplete
HCMV strain TB40/E; virus pre-incubated 2 h
  EC50 of inhibition of infection of HECs: 0.02 to 0.05 µg/mL
[1]
  reduction of adsorption on HFFs: 50%
  reduction of penetration of HFFs (less efficient): 75%
[2]
  staining of wild type vs UL74stop particles with anti-human Fc antibody: Only virus particles containing the glycoprotein pUL74 were stained
